These results are taken from patent publication US20240092756A1, “METHODS AND COMPOSITION FOR KRAS MODIFICATIONS” (2692372 ONTARIO, INC., priority 2020, published 2024).

Structures are written as SMILES.

In one assay the target is KRAS G12C (Homo sapiens, UniProt P01116, G12C). Description: SOS1-catalyzed KRAS coupled nucleotide exchange assay (Alpha technology). It counts as biochemical. More on the design: His; key: A: KRAS G12C bound and modulated. The following applies: inhibition of SOS1 mediated KRAS nucleotide exchange. How it is done:
Method I: The inhibition of the SOS1-catalyzed nucleotide exchange activity of KRAS (e.g., KRAS G12C/C118A) was measured using Alpha (Amplified Luminescent Proximity Homogeneous Assay) technology. 20 nM GDP-bound human KRAS (G12C/C118A) protein was incubated with two-fold serially-diluted test compound or DMSO for 5 minutes at ambient temperature in reaction buffer (25 mM HEPES, pH 7.4; 10 mM MgCl2; 0.01% Triton X-100). For all subsequent steps, DTT was added to the reaction buffer at a final concentration of 1 mM. Next, GTP and SOS-1 were added in DTT-reaction buffer at final concentrations of 1.25 mM or 500 nM, respectively, and incubated at RT for 30 minutes. Finally, c-RAF RBD (50 nM final), Alpha glutathione donor beads (PerkinElmer; 20 μg/mL final), and AlphaLISAnickel chelate acceptor beads (PerkinElmer; 20 μg/mL final), all diluted in DTT-reaction buffer, were added. The reaction mixture was incubated at RT for 5 min, and then the plates were read on an EnVision® Multilabel Reader using the AlphaScreen protocol. Luminescence signal was measured at 570 nm following a 180 ms excitation at 680 nm. Signal intensity corresponded with the association of c-RAF RBD with GTP-bound KRAS G12C/C118A and was normalized to DMSO control.
Method II: Inhibition of the SOS1-catalyzed nucleotide exchange activity of KRAS^G12C was measured using Alpha technology (PerkinElmer). 50 nM GDP-bound human KRAS^G12C protein was incubated with serially-diluted compound or DMSO for 2 hrs at RT in RBD-RAS binding buffer (BPSBioscience). 1 mM GTP and 500 nM SOS-1 were added to the reaction mixture and incubated at RT for 30 min. GST-tagged RBD-cRAF was then added to the reaction mixture at a final concentration of 2.5 nM and incubated at RT for 30 min. Finally, Alpha Glutathione acceptor beads and Nickel chelate donor beads (PerkinElmer) were diluted to 1:500 and 1:250, respectively, and added to the reaction mixture. The final reaction was incubated at RT for 30 min. Plates were read on a TECAN SPARK® Multiplate Reader. The luminescence signal was measured at 615 nm following excitation at 680 nm. Signal intensity was normalized to DMSO control.

The target in assay [1] is KRAS G12C Lite (SEQ ID NO:3) (Homo sapiens, UniProt P01116, C118S/C51S/C80S/G12C/S136P/S39C). Description: Intact mass analysis (LC-MS) of covalent modification, KRAS G12C Lite. It counts as binding. More on the design: key to KRAS Lite Modification: a: KRAS Lite modified. Conditions: for KRAS Lite Modification: intact mass spectrometry, covalent modification of KRAS G12C Lite. How it is done:
(§1) The covalent modification of the proteins with the compounds were evaluated using intact mass analysis by liquid chromatography-mass spectrometry instrument (LC-MS/MS).
(§2) The reaction solution (20 μL) was prepared in 96-well plate and contained the protein (2 μM), the compound (100 μM), HEPES buffer (20 mM, pH 8), 2% DMSO, 2% glycerol, and 150 mM NaCl. The reaction was allowed to proceed for 24 h at 25° C. The reaction solution (1 μL) was injected into the LC/MS/MS without any further sample preparation.
(§3) The LC-MS/MS instrument comprises of a Waters G2-XS quadrupole-time of flight (QTof) mass spectrometer and a Waters Acuity I-class Ultra-High Performance Liquid Chromatography (UPLC) system. The I-class UPLC system includes a binary solvent manager (BSM), and an Acquity sample manager (SM). The mobile phase consisted of: A) 0.1% (v/v) formic acid in MilliQ water; B) 0.1% (v/v) formic acid acetonitrile. Gradients were run over 5 min and proceeded as follows: A:B, 85:15, 0.0-0.7 min, 85:15→15:85, 0.7-1.5 min, 10:90, 1.5-4 min, 10:90→85:15, 4-4.5 min, 85:15, 4.5-5 min. The analytical column was a Waters BEH C4 column 1.7 μm (50×1 mm) column with pore sizes of 300 Å. The TOF MS data was collected in positive ion mode (m/z of 400-2000 Da) using MassLynx software (Waters).
(§4) The spectral deconvolution was performed using UNIFI software (Waters). The added mass of the protein upon covalent modification to cysteine residues were specified. Multiple modification of up to 8 cysteine was allowed. All the adducts with signal intensities of <2% of the base peak were ignored. The % modification was calculated as the adduct signal intensity over the total intensities of the protein peaks and the adducts.

Assay [2] deals with phospho-ERK1/2 in MIA PaCa-2 cells (express KRAS G12C). Description: ERK1/2 phosphorylation in MIA PaCa-2 cells. The class given is cell-based, human. More on the design: key: X: KRAS G12C bound and modulated in cells. As for the experimental part: MIA PaCa-2 cells were cultured in Dulbecco's Modified Eagle's Medium (Wisent) supplemented with 10% FBS, 2.5% horse serum, and 1% penicillin/streptomycin. Cells were seeded in 6-well plates at 500,000 cells/well and incubated at 37° C., 5% CO2 for 16 hours. Cells were treated with the indicated concentrations of compound or DMSO alone and incubated at 37° C., 5% CO2 for 6 or 24 hours. Conditioned media was discarded, and adherent cells were washed with PBS before they were scraped. Cell suspensions were centrifugated at 2,000 RPM for 5 minutes at 4° C. and supernatants were discarded. Cell pellets were resuspended with 1×RIPA buffer (Millipore) and incubated on ice for 15 minutes. Protein lysates were extracted by centrifugating at 20,000 RPM for 20 minutes at 4° C. Proteins were separated and total KRas protein levels were quantified by Simple Western Immunoassay (ProteinSimple) using the 2-40 kDa Separation Module for Jess according to the manufacturer's protocol, using a protein concentration of 0.5 μg/μl and antibodies targeting KRas (clone #4F3, Sigma) and GAPDH (clone #14C10, Cell Signaling) diluted to 1:10 and 1:1600, respectively, where the latter was used as a loading control. A 3:1 ratio of rabbit to mouse HRP-conjugated secondary antibodies was used for detection. KRas protein levels were quantified relative to GAPDH loading levels and subsequently normalized to the DMSO control. Phosphorylated ERK1/2 levels were quantified by Simple Western Immunoassay (ProteinSimple) using the Protein Normalization Assay Module for Jess according to the manufacturer's protocol using a protein concentration of 0.5 μg/μl and an antibody targeting phosphor-ERK1/2 (clone #D13.14.4E, Cell Signalling) diluted to 1:10. Phosphorylated ERK1/2 levels were normalized to the Jess Protein Normalization Reagent loading control and subsequently to the DMSO control.
MIA PaCa-2 cells were cultured in Dulbecco's Modified Eagle's Medium (Wisent) supplemented with 10% FBS, 2.5% horse serum, and 1% penicillin/streptomycin. Cells were seeded in 96-well plates at a density of 25,000 cells/well and incubated at 37° C., 5% CO2 for 24 hours. The next day, cells were starved in cell culture media containing 1% FBS only at 37° C., 5% CO2 for 16 hours. Following starvation, serially-diluted compounds or DMSO alone were added to cells and incubated at 37° C., 5% CO2 for 1 or 3 hours. Prior to cell lysis, 25 ng/ml human epidermal growth factor (hEGF) (Sigma) was added to the cells and incubated at 37° C., 5% CO2 for 10 minutes. Conditioned media was discarded, and adherent cells lysed and basal ERK1/2 phosphorylation levels were measured using the Phospho-ERK (Thr202/Tyr204) Cellular HTRF kit (Perkin Elmer) according to the manufacturer's protocol. The fluorescent signal of the acceptor antibody at a wavelength of 665 nm was normalized to that of the donor antibody at 620 nm. HTRF ratios were plotted and relative IC50 values were obtained using Prism (GraphPad).

Assay [3] has as its target T1, KRAS G12C (SEQ ID NO:1 or SEQ ID NO:2) (Homo sapiens, UniProt P01116, G12C).
T1 construct: purchased
Description: Intact mass analysis (LC-MS) of covalent modification, KRAS G12C. It counts as binding. Conditions: for KRAS G12C Modification: intact mass spectrometry, covalent modification of KRAS G12C FL. More on the design: key to KRAS G12C Modification: b: KRAS G12C modified. As for the experimental part: as §1, §2, §3, §4

Setting [4] is: modification by one molecule of compound.

Consider `Cc1ccnc(C(C)C)c1-n1c(=O)nc(N2CCN(S(=O)(=O)c3c(F)c(F)c(F)c(F)c3C(F)(F)F)C[C@@H]2C)c2cc(F)c(-c3c(O)cccc3F)nc21` [Compound 6A, 6-fluoro-7-(2-fluoro-6-hydroxyphenyl)-1-(2-isopropyl-4-methylpyridin-3-yl)-4-((S)-2-methyl-4-((2,3,4,5-tetrafluoro-6-(trifluoromethyl)phenyl)sulfonyl)piperazin-1-yl)pyrido[2,3-d]pyrimidin-2(1H)-one], for which the “KRAS-SOS1 Nucleotide Exchange” value on KRAS G12C is given as “A”. Further, the “KRAS Lite Modification” value in assay [1] is “a”. Also, in assay [1] (setting [4]), the “covalent adduct mass, His-tagged KRAS G12C Lite” value is listed as 22,229 Da. Besides, the “pERK - MIA PaCa-2 - (6 hours, 5 uM)” value in assay [2] is given as “X”. In addition, the “KRAS G12C Modification” value in assay [3] is “b”. For the same compound, the “covalent adduct mass, His-tagged KRAS G12C” value in assay [3] (setting [4]) is listed as 22,120 Da.

As to `Cc1ccnc(C(C)C)c1-n1c(=O)nc(N2CCN(S(=O)(=O)c3c(F)c(F)c(F)c(F)c3OC(F)F)C[C@@H]2C)c2cc(F)c(-c3c(O)cccc3F)nc21` (single isomer, unassigned) [Compound 18A], at KRAS G12C, the “KRAS-SOS1 Nucleotide Exchange” value was “A”. Besides, in assay [1], the “KRAS Lite Modification” value is “a”. Besides, the “pERK - MIA PaCa-2 - (6 hours, 5 uM)” value in assay [2] is “X”. Also, the “KRAS G12C Modification” value in assay [3] is listed as “b”.

As to `Cc1ccnc(C(C)C)c1-n1c(=O)nc(N2CCN(S(=O)(=O)c3c(F)c(F)c(F)c(F)c3OC(F)F)C[C@@H]2C)c2cc(F)c(-c3c(O)cccc3F)nc21` [Compound 16A, 4-((S)-4-((2-(difluoromethoxy)-3,4,5,6-tetrafluorophenyl)sulfonyl)-2-methylpiperazin-1-yl)-6-fluoro-7-(2-fluoro-6-hydroxyphenyl)-1-(2-isopropyl-4-methylpyridin-3-yl) pyrido[2,3-d]pyrimidin-2(1H)-one], at KRAS G12C, the “KRAS-SOS1 Nucleotide Exchange” value is “A”. Moreover, in assay [1], the “KRAS Lite Modification” value is listed as “a”. For the same compound, in assay [3], the “KRAS G12C Modification” value is on record as “b”.

On to `O=C(COc1ccc(Cl)cc1Cl)NC1CN(S(=O)(=O)c2c(F)c(F)c(F)c(F)c2F)C1` [Compound 50A, 2-(2,4-dichlorophenoxy)-N-(1-((perfluorophenyl)sulfonyl)azetidin-3-yl)acetamide], for which, in assay [3], the “KRAS G12C Modification” value is listed as “b”.

Regarding `Cc1ccnc(C(C)C)c1-n1c(=O)nc(N2CCN(S(=O)(=O)c3c(F)c(F)c(F)c(F)c3F)C[C@@H]2C)c2cc(F)c(Cl)nc21` [Compound 2A, 7-chloro-6-fluoro-1-(2-isopropyl-4-methylpyridin-3-yl)-4-((S)-2-methyl-4-((perfluorophenyl)sulfonyl)piperazin-1-yl)pyrido[2,3-d]pyrimidin-2(1H)-one], the “KRAS-SOS1 Nucleotide Exchange” value at KRAS G12C is “A”. The “KRAS Lite Modification” value in assay [1] is listed as “a”. The “KRAS G12C Modification” value in assay [3] is reported as “b”.

As for `O=C(COc1ccc(Cl)cc1Cl)N1CCN(S(=O)(=O)c2c(F)c(F)c(F)c(F)c2C(F)(F)F)CC1` [Compound 51A, 2-(2,4-dichlorophenoxy)-1-(4-((2,3,4,5-tetrafluoro-6-(trifluoromethyl)phenyl)sulfonyl)piperazin-1-yl)ethan-1-one], in assay [3], the “KRAS G12C Modification” value is on record as “b”.

On to `Cc1cccc(C)c1-c1ccc2cc(CNS(=O)(=O)c3c(F)c(F)c(F)c(F)c3F)cnc2c1` [Compound 19A, N-[[7-(2,6-dimethylphenyl)-3-quinolyl]methyl]-2,3,4,5,6-pentafluoro-benzenesulfonamide], for which the “KRAS Lite Modification” value in assay [1] is reported as “a”. In assay [2], the “pERK - MIA PaCa-2 - (6 hours, 5 uM)” value is “X”. For the same compound, the “KRAS G12C Modification” value in assay [3] is recorded as “b”.

For the compound `Cc1ccnc(C(C)C)c1-n1c(=O)nc(NS(=O)(=O)c2c(F)c(F)c(F)c(F)c2F)c2cc(F)c(Cl)nc21` [Compound 4A, N-(7-chloro-6-fluoro-1-(2-isopropyl-4-methylpyridin-3-yl)-2-oxo-1,2-dihydropyrido[2,3-d]pyrimidin-4-yl)-2,3,4,5,6-pentafluorobenzenesulfonamide], on KRAS G12C, the “KRAS-SOS1 Nucleotide Exchange” value is “A”. Moreover, the “KRAS Lite Modification” value in assay [1] is on record as “a”. Also, in assay [2], the “pERK - MIA PaCa-2 - (6 hours, 5 uM)” value is recorded as “X”.

With `COc1c(F)c(F)c(F)c(F)c1S(=O)(=O)N1CCN(c2nc(=O)n(-c3c(C)ccnc3C(C)C)c3nc(-c4c(O)cccc4F)c(F)cc23)[C@@H](C)C1` [Compound 5A, 6-fluoro-7-(2-fluoro-6-hydroxyphenyl)-1-(2-isopropyl-4-methylpyridin-3-yl)-4-((S)-2-methyl-4-((2,3,4,5-tetrafluoro-6-methoxyphenyl)sulfonyl)piperazin-1-yl)pyrido[2,3-d]pyrimidin-2(1H)-one], the “KRAS-SOS1 Nucleotide Exchange” value on KRAS G12C was “A”. Moreover, the “pERK - MIA PaCa-2 - (6 hours, 5 uM)” value in assay [2] was “X”. Besides, the “KRAS G12C Modification” value in assay [3] is reported as “b”.
